{
  "source": "patent US20110053773A1",
  "about": "“METHODS OF IMPROVING NUTRITIONAL VALUE OF PLANTS” (UNIVERSITY OF TENNESSEE RESEARCH FOUNDATION, priority 2009, published 2011)",
  "key": {"[1]": {"system": "sweet corn (Zea mays var. rugosa) cultivar 'Incredible'", "assay": "Content analysis of sweet corn ears: crude protein, amino acids, detergent fiber, fatty acids, minerals (Example 1)", "assay_type": "in vivo", "settings": "POST at b59 rates; every treatment incl. check also got atrazine 560 g ai/ha + COC 1% v/v; relative to treated check (atrazine), check=0", "from_the_text": "Herbicide treatments were applied in a water carrier at 23 gallons of solution per acre on a field site near Knoxville, Tenn. and Painter, Va. Treatments include the following: 1) nicosulfuron at 35 g ai/ha (Accent); 2) mesotrione at 105 g ai/ha (Callisto); 3) nicosulfuron at 35 g ai/ha+mesotrione at 105 g ai/ha (Callisto+Accent); 4) tembotrione at 92 g ai/ha+isoxadifen-ethyl at 46 g ai/ha (Laudis); 5) topramezone at 15 g ai/ha (Impact); 6) nicosulfuron at 35 g ai/ha+isoxadifen-ethyl at 9 g ai/ha (Accent Q); 7) nicosulfuron at 35 g ai/ha+isoxadifen-ethyl at 9 g ai/ha+topramezone at 15 g ai/ha (Accent Q+Impact); 8) nicosulfuron 35 g ai/ha+isoxadifen-ethyl at 9 g ai/ha+mesotrione at 105 g ai/ha (Accent Q+Callisto); 9) treated check (atrazine or Aatrex). All treatments included a PRE application of atrazine plus metolachlor in order to maintain weed free conditions. In addition, all POST treatments (including the treated check) included atrazine at 560 g ai/ha and crop oil concentrate at 1% v/v. […] Sweet corn was harvested from the center two rows of each four row plot and weighed in the husk."}, "[2]": {"system": "sweet corn variety 'Incredible'", "assay": "Sugar and key antioxidant content of sweet corn (Example 1, Table 15)", "assay_type": "in vivo, Zea mays var. rugosa", "settings": "rates g ai/ha: Nicosulfuron 35, Mesotrione 105, Topramezone 18, Isoxadifen-ethyl 13, all incl. treated check with atrazine 560 g ai/ha + 1% v/v crop oil concentrate", "from_the_text": "Herbicide treatments were applied in a water carrier at 23 gallons of solution per acre on a field site near Knoxville, Tenn. and Painter, Va. […] All treatments included a PRE application of atrazine plus metolachlor in order to maintain weed free conditions. In addition, all POST treatments (including the treated check) included atrazine at 560 g ai/ha and crop oil concentrate at 1% v/v. […] Sweet corn was harvested from the center two rows of each four row plot and weighed in the husk."}, "basil 'Genovese'": {"system": "basil 'Genovese'", "assay": "Content analysis of basil: protein, minerals (Example 4, Tables 10-11)", "assay_type": "in vivo", "settings": "28 DA-A, rates g ai/ha: chlroprifos 3370, chlorothalonil 7900, paclobutrazol 9.7, mepiquat-chloride 37, Isoxadifen 16, Napthalic anhydride 527, + NIS 0.25 % v/v", "procedure": "Greenhouse and laboratory studies were conducted to ascertain the tolerance and nutritional quality differences following postemergence applications of the insecticide chlorpyrifos, the fungicide chlorothalonil, the PGRs mepiquat-chloride and paclobutrazol, and the safeners napthalic anhydride and isoxadifen-ethyl on kale ‘Red Russian’ and basil ‘Genovese’. Visual injury was rated based on general phytotoxicity, chlorosis, and visual stunting and each measurement was based on a percent scale from 0 to 100 where 0 equals no visual response and 100 equals complete plant death. Kale and basil were both harvested approximately 4 weeks after treatments and plants were pooled over replicates for content analysis of crude protein, crude amino acid content, acid detergent fiber, neutral detergent fiber, total fatty acids, and/or key mineral content (including Na, Ca, P, Mg, K, Fe, Mn, Zn, and Cu). In addition, the amounts of key individual amino acids (aspartic acid, threonine, glutamic acid, proline, glycine, cysteine, valine, leucine, isoleucine, methionine, and lysine) and composite classifications of fatty acid (saturated fatty acids, monounsaturated fatty acids, polyunsaturated fatty acids) were also analyzed from these sub-samples for kale (Tables 10-14)."}},
  "data": [
    {"compound": "COc1cc(OC)nc(NC(=O)NS(=O)(=O)c2ncccc2C(=O)N(C)C)n1", "note": "[Nicosulfuron*ACCENT, nicosulfuron]", "values": [
      {"measurement": "Acid DF", "setting": "[1]", "result": "9 % of check"},
      {"measurement": "Alanine", "setting": "[1]", "result": "1 % of check"},
      {"measurement": "Amino Acid", "setting": "[1]", "result": "−1 % of check"},
      {"measurement": "Aspartic ac", "setting": "[1]", "result": "−4 % of check"},
      {"measurement": "Cysteine", "setting": "[1]", "result": "0 % of check"},
      {"measurement": "Glutamic ac", "setting": "[1]", "result": "−2 % of check"},
      {"measurement": "Glycine", "setting": "[1]", "result": "−4 % of check"},
      {"measurement": "Isoleucine", "setting": "[1]", "result": "0 % of check"},
      {"measurement": "Leucine", "setting": "[1]", "result": "0 % of check"},
      {"measurement": "Lysine", "setting": "[1]", "result": "1 % of check"},
      {"measurement": "Methionine", "setting": "[1]", "result": "0 % of check"},
      {"measurement": "Neutral DF", "setting": "[1]", "result": "4 % of check"},
      {"measurement": "Proline", "setting": "[1]", "result": "−7 % of check"},
      {"measurement": "Protein", "setting": "[1]", "result": "7 % of check"},
      {"measurement": "Threonine", "setting": "[1]", "result": "2 % of check"},
      {"measurement": "Valine", "setting": "[1]", "result": "0 % of check"},
      {"measurement": "calcium", "setting": "[1]", "result": "0 % of check"},
      {"measurement": "copper", "setting": "[1]", "result": "0 % of check"},
      {"measurement": "iron", "setting": "[1]", "result": "14 % of check"},
      {"measurement": "magnesium", "setting": "[1]", "result": "14 % of check"},
      {"measurement": "manganese", "setting": "[1]", "result": "33 % of check"},
      {"measurement": "mon fattyac", "setting": "[1]", "result": "15 % of check"},
      {"measurement": "phosphorous", "setting": "[1]", "result": "6 % of check"},
      {"measurement": "polyfattyac", "setting": "[1]", "result": "12 % of check"},
      {"measurement": "potassium", "setting": "[1]", "result": "1 % of check"},
      {"measurement": "sat fattyac", "setting": "[1]", "result": "12 % of check"},
      {"measurement": "sodium", "setting": "[1]", "result": "21 % of check"},
      {"measurement": "tot fattyac", "setting": "[1]", "result": "13 % of check"},
      {"measurement": "zinc", "setting": "[1]", "result": "2 % of check"},
      {"measurement": "Fructose, percent increase", "setting": "[2]", "result": 48, "unit": "%"},
      {"measurement": "Gamma-tocopherol, percent increase", "setting": "[2]", "result": 1, "unit": "%"},
      {"measurement": "Glucose, percent increase", "setting": "[2]", "result": 35, "unit": "%"},
      {"measurement": "Lutein, percent increase", "setting": "[2]", "result": 9, "unit": "%"},
      {"measurement": "Maltose, percent increase", "setting": "[2]", "result": 23, "unit": "%"},
      {"measurement": "Sucrose, percent increase", "setting": "[2]", "result": "−4", "unit": "%"},
      {"measurement": "Total Sugars, percent increase", "setting": "[2]", "result": 16, "unit": "%"},
      {"measurement": "Zeaxanthin, percent increase", "setting": "[2]", "result": 9, "unit": "%"},
      {"measurement": "antheraxanthin, percent increase", "setting": "[2]", "result": 15, "unit": "%"}
    ]},
    {"compound": "Cc1c(C(=O)c2cnn(C)c2O)ccc(S(C)(=O)=O)c1C1=NOCC1", "note": "[Topramezone*IMPACT, topramezone]", "values": [
      {"measurement": "Acid DF", "setting": "[1]", "result": "2 % of check"},
      {"measurement": "Alanine", "setting": "[1]", "result": "8 % of check"},
      {"measurement": "Amino Acid", "setting": "[1]", "result": "7 % of check"},
      {"measurement": "Aspartic ac", "setting": "[1]", "result": "6 % of check"},
      {"measurement": "Cysteine", "setting": "[1]", "result": "3 % of check"},
      {"measurement": "Glutamic ac", "setting": "[1]", "result": "6 % of check"},
      {"measurement": "Glycine", "setting": "[1]", "result": "4 % of check"},
      {"measurement": "Isoleucine", "setting": "[1]", "result": "10 % of check"},
      {"measurement": "Leucine", "setting": "[1]", "result": "8 % of check"},
      {"measurement": "Lysine", "setting": "[1]", "result": "10 % of check"},
      {"measurement": "Methionine", "setting": "[1]", "result": "8 % of check"},
      {"measurement": "Neutral DF", "setting": "[1]", "result": "7 % of check"},
      {"measurement": "Proline", "setting": "[1]", "result": "6 % of check"},
      {"measurement": "Protein", "setting": "[1]", "result": "8 % of check"},
      {"measurement": "Threonine", "setting": "[1]", "result": "12 % of check"},
      {"measurement": "Valine", "setting": "[1]", "result": "9 % of check"},
      {"measurement": "calcium", "setting": "[1]", "result": "0 % of check"},
      {"measurement": "copper", "setting": "[1]", "result": "0 % of check"},
      {"measurement": "iron", "setting": "[1]", "result": "23 % of check"},
      {"measurement": "magnesium", "setting": "[1]", "result": "13 % of check"},
      {"measurement": "manganese", "setting": "[1]", "result": "38 % of check"},
      {"measurement": "mon fattyac", "setting": "[1]", "result": "10 % of check"},
      {"measurement": "phosphorous", "setting": "[1]", "result": "8 % of check"},
      {"measurement": "polyfattyac", "setting": "[1]", "result": "9 % of check"},
      {"measurement": "potassium", "setting": "[1]", "result": "6 % of check"},
      {"measurement": "sat fattyac", "setting": "[1]", "result": "8 % of check"},
      {"measurement": "sodium", "setting": "[1]", "result": "29 % of check"},
      {"measurement": "tot fattyac", "setting": "[1]", "result": "9 % of check"},
      {"measurement": "zinc", "setting": "[1]", "result": "4 % of check"},
      {"measurement": "Fructose, percent increase", "setting": "[2]", "result": 63, "unit": "%"},
      {"measurement": "Gamma-tocopherol, percent increase", "setting": "[2]", "result": 8, "unit": "%"},
      {"measurement": "Glucose, percent increase", "setting": "[2]", "result": 40, "unit": "%"},
      {"measurement": "Lutein, percent increase", "setting": "[2]", "result": 0, "unit": "%"},
      {"measurement": "Maltose, percent increase", "setting": "[2]", "result": 8, "unit": "%"},
      {"measurement": "Sucrose, percent increase", "setting": "[2]", "result": "−18", "unit": "%"},
      {"measurement": "Total Sugars, percent increase", "setting": "[2]", "result": 10, "unit": "%"},
      {"measurement": "Zeaxanthin, percent increase", "setting": "[2]", "result": "−8", "unit": "%"},
      {"measurement": "antheraxanthin, percent increase", "setting": "[2]", "result": 23, "unit": "%"}
    ]},
    {"compound": "CCOP(=S)(OCC)Oc1nc(Cl)c(Cl)cc1Cl", "note": "[chlroprifos]", "values": [
      {"measurement": "ADF, Percent Increase Over the Untreated Check (on a % dry matter basis)", "setting": "basil 'Genovese'", "result": 10, "unit": "% check"},
      {"measurement": "Calcium, Percent Increase Over the Untreated Check (on a % dry matter basis)", "setting": "basil 'Genovese'", "result": 3, "unit": "% check"},
      {"measurement": "Copper, Percent Increase Over the Untreated Check (on a % dry matter basis)", "setting": "basil 'Genovese'", "result": 8, "unit": "% check"},
      {"measurement": "Iron, Percent Increase Over the Untreated Check (on a % dry matter basis)", "setting": "basil 'Genovese'", "result": 57, "unit": "% check"},
      {"measurement": "Magnesium, Percent Increase Over the Untreated Check (on a % dry matter basis)", "setting": "basil 'Genovese'", "result": 21, "unit": "% check"},
      {"measurement": "Manganese, Percent Increase Over the Untreated Check (on a % dry matter basis)", "setting": "basil 'Genovese'", "result": 12, "unit": "% check"},
      {"measurement": "NDF, Percent Increase Over the Untreated Check (on a % dry matter basis)", "setting": "basil 'Genovese'", "result": 9, "unit": "% check"},
      {"measurement": "Phosphorous, Percent Increase Over the Untreated Check (on a % dry matter basis)", "setting": "basil 'Genovese'", "result": 50, "unit": "% check"},
      {"measurement": "Potassium, Percent Increase Over the Untreated Check (on a % dry matter basis)", "setting": "basil 'Genovese'", "result": 27, "unit": "% check"},
      {"measurement": "Protein, Percent Increase Over the Untreated Check (on a % dry matter basis)", "setting": "basil 'Genovese'", "result": 32, "unit": "% check"},
      {"measurement": "Sodium, Percent Increase Over the Untreated Check (on a % dry matter basis)", "setting": "basil 'Genovese'", "result": 25, "unit": "% check"},
      {"measurement": "Soluble protein, Percent Increase Over the Untreated Check (on a % dry matter basis)", "setting": "basil 'Genovese'", "result": 42, "unit": "% check"},
      {"measurement": "Zinc, Percent Increase Over the Untreated Check (on a % dry matter basis)", "setting": "basil 'Genovese'", "result": 46, "unit": "% check"}
    ]}
  ]
}
